From ChEMBL document CHEMBL3785084, “Rational modification of the lead molecule: Enhancement in the anticancer and dihydrofolate reductase inhibitory activity” (Bioorg Med Chem Lett, 2016)

Columns and labels:
ACHN = assay: cells; settings: Homo sapiens, 48 h; for CC50: read-out: LC50
Description: Cytotoxicity against human ACHN cells after 48 hrs by sulforhodamine B assay

cells [1] = settings: Homo sapiens, HCC 2998, 48 h; for CC50: read-out: LC50
Description: Cytotoxicity against human HCC2998 cells after 48 hrs by sulforhodamine B assay

SR = assay: Cytotoxicity against human SR cells after 48 hrs by sulforhodamine B assay; format: functional; settings: for CC50: read-out: LC50 (the source's name)
cells [2] = settings: Homo sapiens, SK-OV-3, 48 h; for CC50: read-out: LC50
Description: Cytotoxicity against human SKOV3 cells after 48 hrs by sulforhodamine B assay

NCI-H522 = assay: cells; settings: Homo sapiens, NCI-H522, 48 h
Description: Cytotoxicity against human NCI-H522 cells after 48 hrs by sulforhodamine B assay

cells [3] = settings: Homo sapiens, COLO 205, 48 h
Description: Cytotoxicity against human COLO205 cells after 48 hrs by sulforhodamine B assay

cells [4] = settings: Homo sapiens, HOP-92, 48 h; for CC50: read-out: LC50
Description: Cytotoxicity against human HOP92 cells after 48 hrs by sulforhodamine B assay

cells [5] = settings: Homo sapiens, OVCAR-3, 48 h; for CC50: read-out: LC50
Description: Cytotoxicity against human OVCAR3 cells after 48 hrs by sulforhodamine B assay

CCRF-CEM = assay: cells; settings: Homo sapiens, 48 h; for CC50: read-out: LC50
Description: Cytotoxicity against human CCRF-CEM cells after 48 hrs by sulforhodamine B assay

cells [6] = settings: Homo sapiens, SW-620, 48 h; for CC50: read-out: LC50
Description: Cytotoxicity against human SW620 cells after 48 hrs by sulforhodamine B assay

MCF7 = assay: cells; settings: Homo sapiens, MCF7, 48 h
Description: Cytotoxicity against human MCF7 cells after 48 hrs by sulforhodamine B assay

cells [7] = settings: Homo sapiens, SNB-19, 48 h; for CC50: read-out: LC50
Description: Cytotoxicity against human SNB19 cells after 48 hrs by sulforhodamine B assay

SN12C = assay: cells; settings: Homo sapiens, 48 h; for CC50: read-out: LC50
Description: Cytotoxicity against human SN12C cells after 48 hrs by sulforhodamine B assay

NCI-H23 = assay: cells; settings: Homo sapiens, NCI-H23, 48 h; for CC50: read-out: LC50
Description: Cytotoxicity against human NCI-H23 cells after 48 hrs by sulforhodamine B assay

NCI-H460 = assay: cells; settings: Homo sapiens, NCI-H460, 48 h; for CC50: read-out: LC50
Description: Cytotoxicity against human NCI-H460 cells after 48 hrs by sulforhodamine B assay

cells [8] = settings: Homo sapiens, HCT-15, 48 h; for CC50: read-out: LC50
Description: Cytotoxicity against human HCT15 cells after 48 hrs by sulforhodamine B assay

cells [9] = settings: Homo sapiens, MOLT-4, 48 h; for CC50: read-out: LC50
Description: Cytotoxicity against human MOLT4 cells after 48 hrs by sulforhodamine B assay

cells [10] = settings: Homo sapiens, RXF 393, 48 h; for CC50: read-out: LC50
Description: Cytotoxicity against human RXF393 cells after 48 hrs by sulforhodamine B assay

cells [11] = settings: Homo sapiens, TK-10, 48 h; for CC50: read-out: LC50
Description: Cytotoxicity against human TK10 cells after 48 hrs by sulforhodamine B assay

K562 = assay: cells; settings: Homo sapiens, K562, 48 h; for CC50: read-out: LC50
Description: Cytotoxicity against human K562 cells after 48 hrs by sulforhodamine B assay

T47D = assay: cells; settings: Homo sapiens, 48 h
Description: Cytotoxicity against human T47D cells after 48 hrs by sulforhodamine B assay

cells [12] = settings: Homo sapiens, CAKI-1, 48 h; for CC50: read-out: LC50
Description: Cytotoxicity against human Caki1 cells after 48 hrs by sulforhodamine B assay

cells [13] = settings: Homo sapiens, HCT-116, 48 h; for CC50: read-out: LC50
Description: Cytotoxicity against human HCT116 cells after 48 hrs by sulforhodamine B assay

HT-29 = assay: cells; settings: Homo sapiens, HT-29, 48 h; for CC50: read-out: LC50
Description: Cytotoxicity against human HT-29 cells after 48 hrs by sulforhodamine B assay

EKVX = assay: cells; settings: Homo sapiens, 48 h; for CC50: read-out: LC50
Description: Cytotoxicity against human EKVX cells after 48 hrs by sulforhodamine B assay

cells [14] = settings: Homo sapiens, UACC-62, 48 h; for CC50: read-out: LC50
Description: Cytotoxicity against human UACC62 cells after 48 hrs by sulforhodamine B assay

cells [15] = settings: Homo sapiens, SNB-75, 48 h; for CC50: read-out: LC50
Description: Cytotoxicity against human SNB75 cells after 48 hrs by sulforhodamine B assay

cells [16] = settings: Homo sapiens, DU-145, 48 h; for CC50: read-out: LC50
Description: Cytotoxicity against human DU145 cells after 48 hrs by sulforhodamine B assay

cells [17] = settings: Homo sapiens, OVCAR-4, 48 h
Description: Cytotoxicity against human OVCAR4 cells after 48 hrs by sulforhodamine B assay

cells [18] = settings: Homo sapiens, IGROV-1, 48 h; for CC50: read-out: LC50
Description: Cytotoxicity against human IGROV1 cells after 48 hrs by sulforhodamine B assay

cells [19] = settings: Homo sapiens, HL-60, 48 h; for CC50: read-out: LC50
Description: Cytotoxicity against human HL-60(TB) cells after 48 hrs by sulforhodamine B assay

cells [20] = settings: Homo sapiens, OVCAR-8, 48 h
Description: Cytotoxicity against human OVCAR8 cells after 48 hrs by sulforhodamine B assay

cells [21] = settings: Homo sapiens, SF-539, 48 h; for CC50: read-out: LC50
Description: Cytotoxicity against human SF539 cells after 48 hrs by sulforhodamine B assay

cells [22] = settings: Homo sapiens, OVCAR-5, 48 h; for CC50: read-out: LC50
Description: Cytotoxicity against human OVCAR5 cells after 48 hrs by sulforhodamine B assay

[23] = Cytotoxicity against human Hs 578T cells after 48 hrs by sulforhodamine B assay; format: functional; settings: for CC50: read-out: LC50 (the source's name)
[24] = Cytotoxicity against human NCI-ADR-RES cells after 48 hrs by sulforhodamine B assay; format: functional; settings: for CC50: read-out: LC50 (the source's name)
MDA-MB-435 = assay: cells; settings: Homo sapiens, MDA-MB-435, 48 h; for CC50: read-out: LC50
Description: Cytotoxicity against human MDA-MB-435 cells after 48 hrs by sulforhodamine B assay

COc1cc(/C=C2\C(=O)Nc3ccccc32)cc(OC)c1O
GI50 (ACHN): 4.7 µM
TGI (ACHN): 22.3 µM
CC50 (ACHN): 83.2 µM
GI50 (cells [1]): 11.7 µM
TGI (cells [1]): 24.5 µM
CC50 (cells [1]): 51.3 µM
GI50 (SR): 1500 nM
TGI (SR): 16.9 µM
CC50 (SR): > 100 µM
GI50 (cells [2]): 3900 nM
TGI (cells [2]): 21.3 µM
CC50 (cells [2]): > 100 µM
GI50 (NCI-H522): 1700 nM
TGI (NCI-H522): 5.1 µM
CC50 (NCI-H522; read-out: LC50): 22.9 µM
GI50 (cells [3]): 12.3 µM
TGI (cells [3]): 26.9 µM
CC50 (cells [3]; read-out: LC50): 58.8 µM
GI50 (cells [4]): 4200 nM
TGI (cells [4]): 48.9 µM
CC50 (cells [4]): > 100 µM
GI50 (cells [5]): 2000 nM
TGI (cells [5]): 5 µM
CC50 (cells [5]): 22.3 µM
GI50 (CCRF-CEM): 5.1 µM
TGI (CCRF-CEM): > 100 µM
CC50 (CCRF-CEM): > 100 µM
GI50 (cells [6]): 3200 nM
TGI (cells [6]): 13.2 µM
CC50 (cells [6]): 36.7 µM
GI50 (MCF7): 700 nM
TGI (MCF7): 15.1 µM
CC50 (MCF7; read-out: LC50): > 100 µM
GI50 (cells [7]): 4500 nM
TGI (cells [7]): 54.9 µM
CC50 (cells [7]): > 100 µM
GI50 (SN12C): 3600 nM
TGI (SN12C): 23.4 µM
CC50 (SN12C): > 100 µM
GI50 (NCI-H23): 5 µM
TGI (NCI-H23): 33.8 µM
CC50 (NCI-H23): > 100 µM
GI50 (NCI-H460): 3000 nM
TGI (NCI-H460): 11.7 µM
CC50 (NCI-H460): 53.7 µM
GI50 (cells [8]): 3200 nM
TGI (cells [8]): 15.1 µM
CC50 (cells [8]): 64.5 µM
GI50 (cells [9]): 3.8 µM
TGI (cells [9]): 93.3 µM
CC50 (cells [9]): > 100 µM
GI50 (cells [10]): 2500 nM
TGI (cells [10]): 8.3 µM
CC50 (cells [10]): 30.9 µM
GI50 (cells [11]): 7.1 µM
TGI (cells [11]): 37.1 µM
CC50 (cells [11]): > 100 µM
GI50 (K562): 2100 nM
TGI (K562): > 100 µM
CC50 (K562): > 100 µM
GI50 (T47D): 3500 nM
TGI (T47D): 85.1 µM
CC50 (T47D; read-out: LC50): > 100 µM
GI50 (cells [12]): 2900 nM
TGI (cells [12]): 25.1 µM
CC50 (cells [12]): > 100 µM
GI50 (cells [13]): 3300 nM
TGI (cells [13]): 13.4 µM
CC50 (cells [13]): 37.1 µM
GI50 (HT-29): 9.1 µM
TGI (HT-29): 30.9 µM
CC50 (HT-29): > 100 µM
GI50 (EKVX): 4.9 µM
TGI (EKVX): 47.8 µM
CC50 (EKVX): > 100 µM
GI50 (cells [14]): 2600 nM
TGI (cells [14]): 11.2 µM
CC50 (cells [14]): 35.4 µM
GI50 (cells [15]): 11.7 µM
TGI (cells [15]): 8.5 µM
CC50 (cells [15]): > 100 µM
GI50 (cells [16]): 5.4 µM
TGI (cells [16]): 46.7 µM
CC50 (cells [16]): > 100 µM
GI50 (cells [17]): 4.9 µM
TGI (cells [17]): 31.6 µM
CC50 (cells [17]; read-out: LC50): > 100 µM
GI50 (cells [18]): 3700 nM
TGI (cells [18]): 20.4 µM
CC50 (cells [18]): 85.1 µM
GI50 (cells [19]): 2800 nM
TGI (cells [19]): 11.2 µM
CC50 (cells [19]): > 100 µM
GI50 (cells [20]): 5 µM
TGI (cells [20]): 29.5 µM
CC50 (cells [20]; read-out: LC50): > 100 µM
GI50 (cells [21]): 2500 nM
TGI (cells [21]): 13.2 µM
CC50 (cells [21]): 53.7 µM
GI50 (cells [22]): 4.7 µM
TGI (cells [22]): 18.6 µM
CC50 (cells [22]): 52.4 µM
GI50 [23]: 1800 nM
TGI [23]: 6.1 µM
CC50 [23]: > 100 µM
GI50 [24]: 2.5 µM
TGI [24]: 7.5 µM
CC50 [24]: > 100 µM
GI50 (MDA-MB-435): 600 nM
TGI (MDA-MB-435): 2200 nM
CC50 (MDA-MB-435): 6 µM

O=C1Nc2ccccc2/C1=C/c1cn(CC(O)Cn2cc(/C=C3\C(=O)Nc4ccccc43)c3ccccc32)c2ccccc12 (stereo not given)
GI50 (ACHN): 1.6 µM
TGI (ACHN): 3.9 µM
CC50 (ACHN): 9.3 µM
GI50 (cells [1]): 2.2 µM
TGI (cells [1]): 5.2 µM
CC50 (cells [1]): 17.3 µM
GI50 (SR): 390 nM
CC50 (SR): > 100 µM
GI50 (cells [2]): 1600 nM
TGI (cells [2]): 3.6 µM
CC50 (cells [2]): 8.1 µM
GI50 (NCI-H522): 1600 nM
TGI (NCI-H522): 3.5 µM
GI50 (cells [3]): 1.6 µM
TGI (cells [3]): 3.6 µM
GI50 (cells [4]): 1800 nM
TGI (cells [4]): 4.1 µM
CC50 (cells [4]): 9.5 µM
GI50 (cells [5]): 1600 nM
TGI (cells [5]): 3.3 µM
CC50 (cells [5]): 6.6 µM
GI50 (CCRF-CEM): 2.8 µM
TGI (CCRF-CEM): 13.4 µM
CC50 (CCRF-CEM): > 100 µM
GI50 (cells [6]): 1300 nM
TGI (cells [6]): 3.4 µM
CC50 (cells [6]): 9.04 µM
GI50 (MCF7): 450 nM
TGI (MCF7): 1.8 µM
GI50 (cells [7]): 1200 nM
TGI (cells [7]): 3.8 µM
CC50 (cells [7]): > 100 µM
GI50 (SN12C): 1500 nM
TGI (SN12C): 3.1 µM
CC50 (SN12C): 6.5 µM
GI50 (NCI-H23): 1.5 µM
TGI (NCI-H23): 3.3 µM
CC50 (NCI-H23): 7.2 µM
GI50 (NCI-H460): 480 nM
TGI (NCI-H460): 1.8 µM
CC50 (NCI-H460): 6.6 µM
GI50 (cells [8]): 1700 nM
TGI (cells [8]): 3.7 µM
CC50 (cells [8]): 7.7 µM
GI50 (cells [9]): 2.5 µM
TGI (cells [9]): 7.4 µM
CC50 (cells [9]): > 100 µM
GI50 (cells [10]): 2040 nM
TGI (cells [10]): 3.7 µM
CC50 (cells [10]): 6.9 µM
GI50 (cells [11]): 2.7 µM
TGI (cells [11]): 5.4 µM
CC50 (cells [11]): 14.4 µM
GI50 (K562): 1200 nM
TGI (K562): 3.5 µM
CC50 (K562): > 100 µM
GI50 (T47D): 1600 nM
TGI (T47D): 3.8 µM
GI50 (cells [12]): 1600 nM
TGI (cells [12]): 3.3 µM
CC50 (cells [12]): 7.1 µM
GI50 (cells [13]): 1600 nM
TGI (cells [13]): 4.1 µM
CC50 (cells [13]): 12.5 µM
GI50 (HT-29): 1.4 µM
TGI (HT-29): 3.5 µM
CC50 (HT-29): 8.7 µM
GI50 (EKVX): 1.8 µM
TGI (EKVX): 3.7 µM
CC50 (EKVX): 7.8 µM
GI50 (cells [14]): 1600 nM
TGI (cells [14]): 3.1 µM
CC50 (cells [14]): 6.1 µM
GI50 (cells [15]): 1.3 µM
TGI (cells [15]): 2.9 µM
CC50 (cells [15]): 6.4 µM
GI50 (cells [16]): 1.5 µM
TGI (cells [16]): 2.9 µM
CC50 (cells [16]): 5.6 µM
GI50 (cells [17]): 1.8 µM
TGI (cells [17]): 3.9 µM
GI50 (cells [18]): 470 nM
TGI (cells [18]): 1.9 µM
CC50 (cells [18]): 5.3 µM
GI50 (cells [19]): 2900 nM
TGI (cells [19]): 10.9 µM
CC50 (cells [19]): 57.5 µM
GI50 (cells [20]): 2.3 µM
TGI (cells [20]): 4.7 µM
GI50 (cells [21]): 1500 nM
TGI (cells [21]): 3.1 µM
CC50 (cells [21]): 6.1 µM
GI50 (cells [22]): 3.4 µM
TGI (cells [22]): 4.5 µM
CC50 (cells [22]): 43.6 µM
GI50 [23]: 2400 nM
TGI [23]: 7.8 µM
CC50 [23]: > 100 µM
GI50 [24]: 12 µM
TGI [24]: 54.5 µM
CC50 [24]: > 100 µM
GI50 (MDA-MB-435): 1800 nM
TGI (MDA-MB-435): 3400 nM
CC50 (MDA-MB-435): 6.6 µM
